Some results are limits rather than exact numbers.

Type in all cases: biochemical
For assay [1], the target named is T1, SRC (Homo sapiens, UniProt P12931).
T1 construct: purchased Caliper Life Sciences
The assay is described as follows: Desktop Profiler kinase panel, SRC. Conditions: 10 micromolar concentration of the compound; read-out: Percent Inhibition SRC. On the procedure: (§1) The Aurora assays described here are performed on two Caliper Life Sciences systems: the LC3000 and the Desktop Profiler. These provide data on enzyme activity via measurement of the relative amounts of phosphorylated or unphosphorylated fluorescently labelled substrate peptide at the end of an enzymatic reaction. These different states of peptide are resolved by applying a potential difference across the sample. The presence of the charged phosphate group on the product (as opposed to the substrate) causes a different peptide mobility between the two peptides. This is visualized by excitation of the fluorescent label on the substrate and product peptides and represented as peaks within the analysis software.
(§2) The Desktop Profiler utilizes the same principle as the LC3000 for calculating percentage conversion of a substrate to product. Caliper Life Sciences provides proprietary flash frozen pre-made 384 well plates containing selected kinases. Each column in the 384 well plate contains a particular selected kinase. A second plate, the ‘substrate plate’ contains a mix of fluorescently labeled peptide substrate and ATP. These are arranged in columns so that transfer for substrate plate to enzyme plate provides the correct enzyme with the correct substrate/ATP concentration. Compounds are added to a thawed enzyme plate in the desired format, in single concentrations. Reactions are initiated by transfer of the substrate/ATP mix from the substrate plate. The enzyme plate is incubated for 90 mins at 25 C. The reaction is stopped by addition of 70 ul of Stop Buffer (100 mM HEPES pH 7.5, 0.015% Brij-35, 10 mM EDTA (Sigma, E7889)).
(§3) Reading of the plate in the Profiler is identical to the LC3000, and the ratio between substrate and product peaks provides the activity of the enzyme in that well. This is best represented by a plate heat map which colors each well by percent inhibition as compared to positive and negative controls (no inhibitors and no ATP respectively).
(§4) In the following Tables 3a-4-b, which show the results of the desktop profiler measurements, “+” means 50-70% inhibition, “++” means 70-90% inhibition, and “+++” means >90% inhibition. The enzymes tested for profiling were ABL, AKT1, AKT2, AurA, CHK1, CHK2, CK1d, Erk1, Erk2, FYN, GSK3b, INSR, LCK, LYN, MAPKAPK2, MET, MSK1, p38a, PKA, PKCz, PKD2, PRAK, RSK1 and SRC.

Assay [2] has as its target T2, CK1d (Homo sapiens, UniProt P48730).
T2 construct: purchased Caliper Life Sciences
The experiment in a line: Desktop Profiler kinase panel, CK1d. As to conditions: 10 micromolar concentration of the compound; read-out: Percent Inhibition CK1d. As to the method: as §1, §2, §3, §4

Assay [3] has as its target T3, LYN (Homo sapiens, UniProt P07948).
T3 construct: purchased Caliper Life Sciences
The experiment in a line: Desktop Profiler kinase panel, LYN. Conditions: 10 micromolar concentration of the compound; read-out: Percent Inhibition LYN. As to the method:
as §1, §2, §3, §4

For assay [4], the target named is T4, CHK2 (Homo sapiens, UniProt O96017).
T4 construct: purchased Caliper Life Sciences
The experiment in a line: Desktop Profiler kinase panel, CHK2. As to conditions: 10 micromolar concentration of the compound; read-out: Percent Inhibition CHK2. On the procedure:
as §1, §2, §3, §4

Assay [5] addresses T5, GSK3b (Homo sapiens, UniProt P49841).
T5 construct: purchased Caliper Life Sciences
The experiment in a line: Desktop Profiler kinase panel, GSK3b. Conditions: 10 micromolar concentration of the compound; read-out: Percent Inhibition GSK3b. As to the method: as §1, §2, §3, §4

The target in assay [6] is T6, AurA (Homo sapiens, UniProt O14965).
T6 construct: purchased Caliper Life Sciences
T6 sequence (O14965 1-403): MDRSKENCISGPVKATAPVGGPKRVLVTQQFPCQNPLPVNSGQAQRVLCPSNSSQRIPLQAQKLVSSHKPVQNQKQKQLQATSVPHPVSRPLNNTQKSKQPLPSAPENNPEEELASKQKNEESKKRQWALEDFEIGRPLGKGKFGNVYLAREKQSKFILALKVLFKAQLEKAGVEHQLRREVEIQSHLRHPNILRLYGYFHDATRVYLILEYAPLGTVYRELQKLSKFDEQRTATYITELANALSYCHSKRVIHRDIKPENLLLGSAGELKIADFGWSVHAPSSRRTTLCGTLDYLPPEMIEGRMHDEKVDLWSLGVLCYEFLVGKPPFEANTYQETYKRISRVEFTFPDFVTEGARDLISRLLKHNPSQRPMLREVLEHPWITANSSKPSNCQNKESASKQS
The assay is described as follows: Desktop Profiler kinase panel, AurA. As to conditions: 10 micromolar concentration of the compound; read-out: Percent Inhibition AurA. The method in brief:
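Pre-made kinase plates with fluorescent peptide substrate and ATP, compounds at single concentrations, 90 min at 25 °C, stopped with EDTA. Substrate and phosphopeptide were separated by mobility shift, and percent inhibition was taken against no-inhibitor and no-ATP controls and binned as 50-70%, 70-90% or >90%.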

Assay [7] deals with T7, AKT2 (Homo sapiens, UniProt P31751).
T7 construct: purchased Caliper Life Sciences
The experiment in a line: Desktop Profiler kinase panel, AKT2. As to conditions: 10 micromolar concentration of the compound; read-out: Percent Inhibition AKT2. As to the method: as §1, §2, §3, §4

Assay [8] addresses T8, ABL (Homo sapiens, UniProt P00519).
T8 construct: purchased Caliper Life Sciences
The experiment in a line: Desktop Profiler kinase panel, ABL. As to conditions: 10 micromolar concentration of the compound; read-out: Percent Inhibition ABL. On the procedure:
as §1, §2, §3, §4

For assay [9], the target named is T9, RSK1 (Homo sapiens, UniProt Q15418).
T9 construct: purchased Caliper Life Sciences
The experiment in a line: Desktop Profiler kinase panel, RSK1. Conditions: 10 micromolar concentration of the compound; read-out: Percent Inhibition RSK1. On the procedure: as §1, §2, §3, §4

Assay [10] has as its target T10, PKD2 (Homo sapiens, UniProt Q9BZL6).
T10 construct: purchased Caliper Life Sciences
T10 sequence (Q9BZL6 1-878): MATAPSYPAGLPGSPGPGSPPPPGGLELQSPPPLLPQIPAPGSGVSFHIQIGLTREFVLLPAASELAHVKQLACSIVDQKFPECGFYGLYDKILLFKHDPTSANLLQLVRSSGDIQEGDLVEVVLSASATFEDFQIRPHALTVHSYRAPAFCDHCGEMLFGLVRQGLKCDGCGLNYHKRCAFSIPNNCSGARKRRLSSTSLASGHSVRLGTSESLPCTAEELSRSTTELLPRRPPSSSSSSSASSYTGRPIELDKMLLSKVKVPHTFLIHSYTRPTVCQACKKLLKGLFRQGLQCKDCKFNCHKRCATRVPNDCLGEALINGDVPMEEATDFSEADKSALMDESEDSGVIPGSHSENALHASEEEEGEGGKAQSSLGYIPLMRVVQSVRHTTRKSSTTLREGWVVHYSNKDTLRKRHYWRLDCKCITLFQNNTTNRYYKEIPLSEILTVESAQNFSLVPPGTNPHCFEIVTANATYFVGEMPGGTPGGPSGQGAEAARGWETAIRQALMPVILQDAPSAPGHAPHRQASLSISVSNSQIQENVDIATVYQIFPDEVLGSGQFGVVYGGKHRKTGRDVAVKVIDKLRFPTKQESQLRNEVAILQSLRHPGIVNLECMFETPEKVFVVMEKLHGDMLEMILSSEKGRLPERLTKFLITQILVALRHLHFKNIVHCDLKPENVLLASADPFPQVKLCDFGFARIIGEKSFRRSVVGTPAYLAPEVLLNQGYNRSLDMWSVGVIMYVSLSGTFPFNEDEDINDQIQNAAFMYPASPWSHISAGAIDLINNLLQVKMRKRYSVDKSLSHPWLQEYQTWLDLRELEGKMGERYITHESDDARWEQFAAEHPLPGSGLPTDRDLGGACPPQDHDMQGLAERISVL
The assay is described as follows: Desktop Profiler kinase panel, PKD2. Conditions: 10 micromolar concentration of the compound; read-out: Percent Inhibition PKD2. On the procedure:
as §1, §2, §3, §4

T9 sequence (Q15418 whole entry, species assumed): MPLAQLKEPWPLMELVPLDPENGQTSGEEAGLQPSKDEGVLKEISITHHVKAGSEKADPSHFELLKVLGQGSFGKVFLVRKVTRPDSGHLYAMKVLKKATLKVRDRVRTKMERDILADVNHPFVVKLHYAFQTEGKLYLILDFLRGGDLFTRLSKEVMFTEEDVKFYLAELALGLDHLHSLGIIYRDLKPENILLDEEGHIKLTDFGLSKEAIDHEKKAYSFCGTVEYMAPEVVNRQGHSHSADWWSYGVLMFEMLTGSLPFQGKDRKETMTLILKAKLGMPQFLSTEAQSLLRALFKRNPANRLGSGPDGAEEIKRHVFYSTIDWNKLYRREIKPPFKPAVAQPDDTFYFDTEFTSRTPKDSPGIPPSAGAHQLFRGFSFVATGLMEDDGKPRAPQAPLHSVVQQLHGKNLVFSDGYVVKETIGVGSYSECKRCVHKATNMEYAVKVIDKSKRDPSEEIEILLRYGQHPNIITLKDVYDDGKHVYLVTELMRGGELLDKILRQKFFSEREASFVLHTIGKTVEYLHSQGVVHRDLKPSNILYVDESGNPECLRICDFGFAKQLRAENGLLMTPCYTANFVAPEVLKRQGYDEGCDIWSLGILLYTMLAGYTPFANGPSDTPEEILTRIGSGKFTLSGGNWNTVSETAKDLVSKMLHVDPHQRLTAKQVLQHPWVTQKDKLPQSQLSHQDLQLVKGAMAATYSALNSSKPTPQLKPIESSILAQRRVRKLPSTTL
T1 sequence (P12931 whole entry, species assumed): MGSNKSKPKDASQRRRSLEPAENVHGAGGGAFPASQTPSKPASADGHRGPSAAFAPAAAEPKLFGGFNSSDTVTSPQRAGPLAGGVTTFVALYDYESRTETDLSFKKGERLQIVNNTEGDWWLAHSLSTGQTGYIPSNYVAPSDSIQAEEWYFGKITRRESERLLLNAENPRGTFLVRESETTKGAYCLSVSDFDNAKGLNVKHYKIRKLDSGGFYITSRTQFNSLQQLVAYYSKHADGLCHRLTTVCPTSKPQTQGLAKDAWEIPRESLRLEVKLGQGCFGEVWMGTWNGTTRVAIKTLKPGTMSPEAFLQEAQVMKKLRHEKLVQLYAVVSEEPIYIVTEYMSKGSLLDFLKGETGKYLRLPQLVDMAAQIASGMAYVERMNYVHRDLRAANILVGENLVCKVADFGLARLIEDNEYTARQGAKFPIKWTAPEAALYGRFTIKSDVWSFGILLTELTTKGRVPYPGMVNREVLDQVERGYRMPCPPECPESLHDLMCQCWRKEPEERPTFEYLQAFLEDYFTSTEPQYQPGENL
T8 sequence (P00519 whole entry, species assumed): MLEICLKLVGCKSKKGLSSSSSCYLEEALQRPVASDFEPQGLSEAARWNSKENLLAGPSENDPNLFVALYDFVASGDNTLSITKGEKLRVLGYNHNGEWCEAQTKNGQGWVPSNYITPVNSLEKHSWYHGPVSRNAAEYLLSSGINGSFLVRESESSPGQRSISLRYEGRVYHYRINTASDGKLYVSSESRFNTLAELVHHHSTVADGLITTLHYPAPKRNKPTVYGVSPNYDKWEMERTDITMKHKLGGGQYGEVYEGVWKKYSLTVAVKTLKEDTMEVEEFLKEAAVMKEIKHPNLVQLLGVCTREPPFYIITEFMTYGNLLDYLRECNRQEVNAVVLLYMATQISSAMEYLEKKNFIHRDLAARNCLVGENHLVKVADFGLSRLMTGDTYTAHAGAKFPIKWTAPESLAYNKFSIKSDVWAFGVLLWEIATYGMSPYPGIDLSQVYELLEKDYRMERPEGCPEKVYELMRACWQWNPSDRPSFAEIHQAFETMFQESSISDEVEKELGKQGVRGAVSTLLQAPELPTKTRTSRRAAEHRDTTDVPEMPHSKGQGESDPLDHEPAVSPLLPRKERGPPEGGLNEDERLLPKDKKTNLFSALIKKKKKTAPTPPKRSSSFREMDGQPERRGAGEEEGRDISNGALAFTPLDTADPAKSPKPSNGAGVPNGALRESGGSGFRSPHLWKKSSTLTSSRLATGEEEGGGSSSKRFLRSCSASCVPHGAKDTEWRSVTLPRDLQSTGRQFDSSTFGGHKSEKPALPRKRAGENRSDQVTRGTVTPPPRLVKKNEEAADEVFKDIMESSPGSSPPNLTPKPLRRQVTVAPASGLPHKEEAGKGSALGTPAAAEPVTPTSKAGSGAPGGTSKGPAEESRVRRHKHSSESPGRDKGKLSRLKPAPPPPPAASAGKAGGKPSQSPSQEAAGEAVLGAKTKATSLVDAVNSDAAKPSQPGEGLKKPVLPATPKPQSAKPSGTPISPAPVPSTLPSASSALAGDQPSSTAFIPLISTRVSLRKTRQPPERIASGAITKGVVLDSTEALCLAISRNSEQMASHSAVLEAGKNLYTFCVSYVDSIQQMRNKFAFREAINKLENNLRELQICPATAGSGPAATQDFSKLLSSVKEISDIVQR
T5 sequence (P49841 whole entry, species assumed): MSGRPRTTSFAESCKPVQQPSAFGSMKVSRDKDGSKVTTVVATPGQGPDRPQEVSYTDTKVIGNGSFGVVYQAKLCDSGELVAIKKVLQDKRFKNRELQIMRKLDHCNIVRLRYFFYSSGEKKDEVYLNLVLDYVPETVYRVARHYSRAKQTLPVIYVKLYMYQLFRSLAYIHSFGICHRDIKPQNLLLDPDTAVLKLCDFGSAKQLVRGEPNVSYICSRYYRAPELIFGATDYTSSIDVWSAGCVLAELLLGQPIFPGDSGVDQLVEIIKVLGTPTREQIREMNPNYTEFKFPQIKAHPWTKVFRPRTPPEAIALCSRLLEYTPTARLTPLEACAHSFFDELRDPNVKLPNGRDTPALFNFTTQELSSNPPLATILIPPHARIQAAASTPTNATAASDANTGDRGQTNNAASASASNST
T2 sequence (P48730 whole entry): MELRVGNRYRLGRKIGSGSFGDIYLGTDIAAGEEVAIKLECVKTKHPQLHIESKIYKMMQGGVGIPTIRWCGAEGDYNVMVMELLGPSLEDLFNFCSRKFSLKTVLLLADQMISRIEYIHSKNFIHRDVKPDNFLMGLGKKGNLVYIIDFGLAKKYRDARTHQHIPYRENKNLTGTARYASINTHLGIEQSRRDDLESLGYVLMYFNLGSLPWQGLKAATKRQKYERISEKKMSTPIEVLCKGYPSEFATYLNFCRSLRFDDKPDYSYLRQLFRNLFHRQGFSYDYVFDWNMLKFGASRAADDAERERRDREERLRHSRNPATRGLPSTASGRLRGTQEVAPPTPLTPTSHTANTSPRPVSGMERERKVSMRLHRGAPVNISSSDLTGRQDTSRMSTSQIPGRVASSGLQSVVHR
T4 sequence (O96017 whole entry, species assumed): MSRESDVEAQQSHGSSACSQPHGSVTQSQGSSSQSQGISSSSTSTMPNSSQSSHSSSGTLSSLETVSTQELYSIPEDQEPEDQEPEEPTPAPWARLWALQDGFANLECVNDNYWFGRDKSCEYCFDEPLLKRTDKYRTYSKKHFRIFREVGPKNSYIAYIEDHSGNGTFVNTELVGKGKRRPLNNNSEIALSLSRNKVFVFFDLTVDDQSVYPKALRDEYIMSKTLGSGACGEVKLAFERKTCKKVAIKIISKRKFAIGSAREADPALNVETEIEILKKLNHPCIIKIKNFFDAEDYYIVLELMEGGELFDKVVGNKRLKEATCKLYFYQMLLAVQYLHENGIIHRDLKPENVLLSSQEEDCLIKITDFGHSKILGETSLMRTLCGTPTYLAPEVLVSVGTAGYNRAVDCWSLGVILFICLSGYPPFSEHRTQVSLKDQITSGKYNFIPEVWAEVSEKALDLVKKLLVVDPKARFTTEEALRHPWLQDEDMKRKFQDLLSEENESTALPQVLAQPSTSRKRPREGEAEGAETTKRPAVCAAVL
T3 sequence (P07948 whole entry, species assumed): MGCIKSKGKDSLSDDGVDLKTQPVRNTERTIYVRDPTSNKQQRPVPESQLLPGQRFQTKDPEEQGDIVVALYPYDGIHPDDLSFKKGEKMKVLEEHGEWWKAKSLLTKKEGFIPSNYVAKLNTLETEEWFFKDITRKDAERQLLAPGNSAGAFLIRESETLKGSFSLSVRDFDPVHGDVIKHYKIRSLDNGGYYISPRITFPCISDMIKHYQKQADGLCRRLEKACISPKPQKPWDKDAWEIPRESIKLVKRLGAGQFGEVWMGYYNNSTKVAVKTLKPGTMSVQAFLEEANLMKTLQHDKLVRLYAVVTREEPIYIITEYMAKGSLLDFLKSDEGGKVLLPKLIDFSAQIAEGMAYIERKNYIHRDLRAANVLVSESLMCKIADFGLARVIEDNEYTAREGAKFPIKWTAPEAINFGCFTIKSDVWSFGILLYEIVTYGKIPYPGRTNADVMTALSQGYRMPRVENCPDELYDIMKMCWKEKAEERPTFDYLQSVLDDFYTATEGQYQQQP
T7 sequence (P31751 whole entry, species assumed): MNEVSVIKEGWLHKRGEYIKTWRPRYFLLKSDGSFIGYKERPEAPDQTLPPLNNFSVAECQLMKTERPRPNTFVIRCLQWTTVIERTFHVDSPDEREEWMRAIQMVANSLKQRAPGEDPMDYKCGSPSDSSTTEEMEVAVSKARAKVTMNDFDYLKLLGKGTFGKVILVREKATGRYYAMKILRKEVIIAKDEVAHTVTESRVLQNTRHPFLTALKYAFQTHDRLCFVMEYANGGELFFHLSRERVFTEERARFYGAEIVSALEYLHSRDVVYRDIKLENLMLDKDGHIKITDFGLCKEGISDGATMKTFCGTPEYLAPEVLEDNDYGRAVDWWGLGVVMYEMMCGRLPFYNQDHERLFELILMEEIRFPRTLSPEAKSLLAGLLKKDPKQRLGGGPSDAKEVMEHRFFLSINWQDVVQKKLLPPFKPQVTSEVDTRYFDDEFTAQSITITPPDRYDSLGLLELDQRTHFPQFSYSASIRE

In the case of `CC(=O)Nc1ccc(Oc2ccc3c(=O)[nH]c4ncccc4c3c2)cc1` [Example 81, N-[4-(6-Oxo-5,6-dihydro-benzo[c][1,8]naphthyridin-9-yloxy)-phenyl]-acetamide], the inhibition at 10 µM in assay [1] is above 90%; in assay [2], 70 to 90%; in assay [3] it was above 90%; in assay [4], 70 to 90%; in [5], above 90%; in assay [6], above 90%. Moreover, the inhibition at 10 µM was above 90% in [7], above 90% in assay [8], 70 to 90% in assay [9] and above 90% in [10].

Turning to `O=c1[nH]c2ncccc2c2cc(Nc3cccc(F)c3)ccc12` [Example 31, 9-(3-Fluoro-phenylamino)-5H-benzo[c][1,8]naphthyridin-6-one], the inhibition at 10 µM in [1] was 70 to 90%; in assay [2], 70 to 90%; in assay [3] it was above 90%; in [4], 50 to 70%; in assay [5] it was 70 to 90%; in [6] it was above 90%. The inhibition at 10 µM was above 90% in assay [7], above 90% in [8], 50 to 70% in [9] and above 90% in [10].

Turning to `NC(=O)c1ccc(Oc2ccc3c(=O)[nH]c4ncccc4c3c2)cc1` [Example 82], the inhibition at 10 µM in assay [1] was 50 to 70%; in [2], 50 to 70%; in [3], 70 to 90%; in assay [4] it was 50 to 70%; in assay [5], 70 to 90%; in assay [6] it was above 90%. Also, the inhibition at 10 µM in assay [7] lay within 50 to 70%; in assay [8], 70 to 90%; in assay [9] it was 50 to 70%; in assay [10] it was 50 to 70%.

The term inhibition denotes the percentage by which the read-out fell short of the control.

The values above are taken from patent publication US8735584B2 (Merck Patent GmbH, priority 2008, dated 2014).
